Measurements taken from ChEMBL document CHEMBL1150134, “Triterpenoid constituents isolated from the bark of Abies sachalinensis” (J Nat Prod, 2002).
Active and inactive are the calls of the source. The calls are words filed in the database; no cut-off is given here.

Legend:
[1] = biological target: T1, DNA topoisomerase 2-alpha (Homo sapiens, UniProt P11388); assay: Inhibition of human DNA topoisomerase 2alpha
[2] = biological target: T1, DNA topoisomerase 2-alpha; assay: Inhibition of human DNA topoisomerase 2alpha at 200 uM
Homo sapiens = species on record: Homo sapiens; assay: Inhibition of human DNA topoisomerase 1 at 200 uM

T1 sequence (P11388 whole entry): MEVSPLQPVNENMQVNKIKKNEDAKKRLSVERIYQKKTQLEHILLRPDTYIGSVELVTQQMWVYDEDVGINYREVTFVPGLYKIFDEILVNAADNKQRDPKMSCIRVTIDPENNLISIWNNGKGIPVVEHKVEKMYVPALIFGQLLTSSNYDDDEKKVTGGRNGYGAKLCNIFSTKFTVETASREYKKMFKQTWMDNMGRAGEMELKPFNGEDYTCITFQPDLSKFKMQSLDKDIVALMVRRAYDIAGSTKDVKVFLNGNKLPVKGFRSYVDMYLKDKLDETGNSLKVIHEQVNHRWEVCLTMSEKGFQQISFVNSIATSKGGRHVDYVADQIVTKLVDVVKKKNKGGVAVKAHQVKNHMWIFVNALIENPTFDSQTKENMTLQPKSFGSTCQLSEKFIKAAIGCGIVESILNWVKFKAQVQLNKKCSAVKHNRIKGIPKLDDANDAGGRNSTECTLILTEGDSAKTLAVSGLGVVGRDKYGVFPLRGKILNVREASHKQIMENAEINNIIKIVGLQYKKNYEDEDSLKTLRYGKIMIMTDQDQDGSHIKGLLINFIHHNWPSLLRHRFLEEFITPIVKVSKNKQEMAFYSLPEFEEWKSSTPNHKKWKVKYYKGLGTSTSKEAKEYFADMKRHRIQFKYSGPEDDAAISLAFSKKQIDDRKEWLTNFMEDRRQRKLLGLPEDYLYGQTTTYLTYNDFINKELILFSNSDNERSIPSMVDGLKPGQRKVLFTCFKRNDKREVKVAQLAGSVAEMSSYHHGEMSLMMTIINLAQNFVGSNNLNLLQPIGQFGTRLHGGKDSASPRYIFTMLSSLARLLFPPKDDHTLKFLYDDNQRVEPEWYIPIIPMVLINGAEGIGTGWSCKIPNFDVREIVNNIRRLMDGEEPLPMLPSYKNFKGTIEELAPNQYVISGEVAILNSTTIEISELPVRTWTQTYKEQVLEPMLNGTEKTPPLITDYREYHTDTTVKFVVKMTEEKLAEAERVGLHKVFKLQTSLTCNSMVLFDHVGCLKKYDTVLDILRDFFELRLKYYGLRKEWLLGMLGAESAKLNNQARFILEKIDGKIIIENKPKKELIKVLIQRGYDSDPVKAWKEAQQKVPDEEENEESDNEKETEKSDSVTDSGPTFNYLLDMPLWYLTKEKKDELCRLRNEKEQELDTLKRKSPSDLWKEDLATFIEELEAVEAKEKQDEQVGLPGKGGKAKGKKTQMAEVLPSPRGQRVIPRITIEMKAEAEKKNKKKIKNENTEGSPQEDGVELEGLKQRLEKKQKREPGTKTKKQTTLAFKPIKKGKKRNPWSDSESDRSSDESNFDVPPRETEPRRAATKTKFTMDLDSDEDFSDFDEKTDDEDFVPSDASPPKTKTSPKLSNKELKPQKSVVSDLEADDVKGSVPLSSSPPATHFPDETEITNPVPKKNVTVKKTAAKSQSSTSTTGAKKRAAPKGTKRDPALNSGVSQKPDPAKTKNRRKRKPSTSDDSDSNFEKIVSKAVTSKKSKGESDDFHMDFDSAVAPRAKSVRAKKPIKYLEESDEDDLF

| Structure (SMILES) | Activity [1] | IC50 [1] | Activity [2] | Activity (Homo sapiens) | inhibition [2] |
| --- | --- | --- | --- | --- | --- |
| C=C(C)[C@@H]1CC=C2[C@@H](CC[C@]3(C)[C@@H]([C@H](C)C[C@H](O)C[C@@H](C)CO)CC[C@@]23C)[C@@]1(C)CCCO | Dose-dependent effect | 50.4 µM | Active | inactive | – |
| C=C(C)[C@@H]1CC=C2[C@@H](CC[C@]3(C)[C@@H]([C@H](C)C[C@@H]4C[C@@H](C)C(=O)O4)CC[C@@]23C)[C@@]1(C)CCC(=O)O | Dose-dependent effect | 42.6 µM | Active | inactive | – |
| C=C(C)[C@@H]1CC=C2[C@@H](CC[C@]3(C)[C@@H]([C@H](C)C[C@@H]4C[C@@H](C)C(=O)O4)CC[C@@]23C)[C@@]1(C)CCC(=O)OC | Dose-dependent effect | 75.7 µM | Active | inactive | – |

Continued, values first:

| Activity [1] | IC50 [1] | Activity [2] | Activity (Homo sapiens) | inhibition [2] | Structure (SMILES) |
| --- | --- | --- | --- | --- | --- |
| – | – | – | inactive | 4% | C=C(C)[C@@H]1CC=C2[C@@H](CC[C@]3(C)[C@@H]([C@H](C)CC(=O)C[C@@H](C)C(=O)O)CC[C@@]23C)[C@@]1(C)CCC(=O)O |
| Dose-dependent effect | 67.3 µM | Active | inactive | – | C=C(C)[C@@H]1CC=C2[C@@H](CC[C@]3(C)[C@@H]([C@H](C)CC(=O)C[C@@H](C)C(=O)OC)CC[C@@]23C)[C@@]1(C)CCC(=O)OC |
